{
  "source": "patent US12139534B2",
  "about": "“Methods and compositions for decreasing soluble immune receptor CD28” (BIOND BIOLOGICS LTD., priority 2018, dated 2024)",
  "key": {"[1]": {"tested_on": "autologous monocytes and CD3 T cells", "test": "Autologous monocytes CD3 MLR with CMV peptide, cytokine secretion", "assay_type": "cell-based, human", "description": "Autologous monocytes CD3 MLR—0.5×10^6 T cells were mixed with 0.5×10^5 monocytes from same CMV reactive donor and stimulated with 0.5 μg/mL CMV peptivator for 6 days at 37° C. with/without the indicated concentration of treatments.\nThe mixed cells were stimulated for 5 days with CMV peptide (0.5 μg/mL) with and without increasing concentrations of recombinant human sCD28.\nThe MLR was run as before only with and without sCD28 and with and without an anti-PD1 antibody (MK3475, 5 μg/mL) (FIG. 9B)."}, "human PBMCs [2]": {"tested_on": "human PBMCs", "test": "SEB or CMV stimulated PBMCs with anti-PD1 and/or soluble CD28, cytokine secretion", "assay_type": "cell-based"}, "SCC-25 cells": {"tested_on": "SCC-25 cells", "test": "SCC-25 cancer cell line trans-well co-culture with monocytes, proliferation", "assay_type": "cell-based, human", "description": "Co-culture of SCC-25 cancer cell line with monocytes in trans-well based assay—4×10^4 SCC-25 cells were plated on the bottom of 24 well plate with 1×10^5 monocytes placed on cell culture insert (Millipore, Cat. No. MCHT241148) with or without indicated treatments for 4 days in starvation media without serum.\nNext, cells of the head and neck cancer cell line SCC-25 were incubated either alone or with monocytes in a trans-well assay. SCC-25 cells grown alone were administered IL-6 as a positive control, and indeed cell proliferation, as measured by MTT (FIG. 10D, upper) and as measured by % confluency (FIG. 10D, lower), was increased."}, "[3]": {"tested_on": "isolated CD3 human T cells", "test": "CD3 T cells stimulation with anti-CD3 OKT3, IFN gamma secretion", "assay_type": "cell-based", "settings": "OKT3 2 μg/mL, CD80-Fc 2 μg/mL, sCD28 titration", "description": "T cells stimulation with OKT3—0.1×10^6 isolated CD3 T cells (from healthy donors) were stimulated with indicated amount of anti-CD3 clone OKT3 for 48-72 hr at 37° C. When stated recombinant human CD80-Fc (2 μg/mL, R&D system) was added in soluble form. Antibodies to CD28 or controls were added at the indicated concentration in soluble form.\nCD80 is one of the two main ligands for mCD28 along with CD86. The extracellular domain of CD80 fused to an Fc moiety has been used as an immune stimulatory molecule and is under investigation as a cancer therapy. In order to examine the effect of sCD28 on CD80-Fc efficacy, isolated CD3 human T cells were stimulated with plate bound anti-CD3 antibody (OKT3, 2 μg/mL) in the presence of 2 μg/mL soluble recombinant human CD80-Fc."}, "human PBMCs [4]": {"tested_on": "human PBMCs", "test": "Lymphocyte clustering of SEB stimulated PBMCs (IncuCyte)", "assay_type": "cell-based", "settings": "SEB 1 ng/mL; human IgG control", "description": "Next, human PBMCs were stimulated with SEB (1 ng/mL) without or in the presence of recombinant human CD28. Human IgG was used as control. Lymphocyte clustering, a hallmark of immune activation was monitored using the IncuCyte® S3 Live-Cell, with pictures taken every 12 hours. […] It is well established that during in-vitro immune response antigen presenting cells (APC) cluster with one another and with other cell types, and clustering is essential for the antigen specific activation of resting lymphocytes."}, "human PBMCs [5]": {"tested_on": "human PBMCs", "test": "CMV stimulation of PBMCs with ectopic recombinant human CD28, CTLA-4, CD80; cytokine ELISA/multiplex", "assay_type": "cell-based"}, "human monocytes": {"tested_on": "human monocytes", "test": "Stimulation of monocytes with recombinant human CD28 (IDO, PD-L1, PD-L2)", "assay_type": "cell-based", "settings": "recombinant human CD28 10 μg/mL", "description": "Flow Cytometry—Generally, cells were kept on ice during all steps. Prior to staining, 5×10^5 cells were blocked with 50 μg/mL human IgG (Sigma, Cat. No. 14506) in FACS buffer (PBS with 0.1% BSA) for 15 min. Antibodies were used at concentrations recommended by the manufacturer and incubated for 30 min. in the dark. Incubations were done in a volume of 100 μL in 96-well U bottom plates. Cells were washed twice with 200 μL of FACS buffer and transferred to FACS tubes in 150 μL of FACS buffer for analysis. Cells were analyzed on a Gallios Flow Cytometer (Beckman Coulter) using the Kaluza for Gallios Flow Cytometry Acquisition Software.\nStimulation of monocytes with recombinant human CD28—1.5×10^6 monocytes were plated at 24 well plate in RPMI medium with […] IFN gamma (R&D system, Cat. No. 285-IF) in the presence of recombinant human CD28 at the indicated concentrations for 48 hrs. The generated cell populations were tested for the indicated phenotypes by FACS analysis of relevant markers (IDO, PD-L1 and PD-L2) and by analysis of secretion of characteristic cytokines (IL-6).\nThe enzyme indoleamine 2,3-dioxygenase (IDO) has been implicated in immune modulation through its ability to catabolize the essential amino acid Tryptophan. It is expressed by different immune cells and also by many cancer cells. Tryptophan shortage inhibits T lymphocytes maturation and proliferation, while Kynurenine, the end product of tryptophan catabolism, is also known as immunosuppressive metabolite that promotes immune tolerance in various physiological and pathophysiological conditions. To test the effect of sCD28 on IDO, isolated human monocytes were stimulated for 48 hr with IFNγ (1000 U/mL) in the presence of control human IgG or with recombinant human CD28 (10 μg/mL). After incubation, the monocytes were stained intracellularly for human IDO (FIG. 8E). To facilitate intracellular staining the cells were fixed and permeabilized with BD Cytofix/Cytoperm Buffer Kit. […]"}, "[6]": {"tested_on": "PBMCs isolated from cancer patients", "test": "SEB stimulated PBMCs of cancer patients, IFN gamma secretion", "assay_type": "cell-based, human", "settings": "SEB 5 ng/mL, 3 days"}, "[7]": {"tested_on": "H22 hepatocellular carcinoma cells", "test": "H22 syngeneic mouse model, tumor growth", "assay_type": "in vivo", "settings": "Balb/c mice, H22 allograft, with anti-PD-1 therapy", "excerpt": "The closest option is to administer recombinant sCD28 to mice to mimic a situation of elevated sCD28 levels. This was investigated in a H22 syngeneic mouse model. Balb/c fully immunocompetent mice received an allograft of H22 hepatocellular carcinoma cells."}, "human PBMCs [8]": {"tested_on": "human PBMCs", "test": "Soluble CD28 generation by SEB or CMV stimulated PBMCs, human CD28 ELISA", "assay_type": "cell-based", "settings": "stimulated cells with protease inhibitors; sandwich ELISA", "description": "ELISA—Commercial ELISA kits were used for quantitation of the amount of human interferon-gamma (Biolegend, Cat. No. 430103), human interleukin 2 (Biolegend, Cat. No. 431802), human interleukin 6 (Biolegend, Cat. No. 430502), human interleukin 10 (Biolegend, Cat. No. 430603), human […] beta 1 (Biolegend, Cat. No. 436708), human interleukin beta 1 (Biolegend, Cat. No. 437004) and human CD28 (R&D system, Cat. No. DY342). Cell Proliferation and viability (MTT assay) was conducted according to manufacturer instructions (Roche, cat #11465007001). Kynurenine (IDO activity) ELISA kit was conducted according to manufacturer instructions (ImmuSmo Cat #BA E-2200).\nProtease Inhibitors—Protease inhibitors were added at the indicated concentrations at the start of each experiment. In week long assays another portion of the inhibitors was added after 3 days at the final concentration. […] Where mentioned the protease cocktail was composed with a mixture of TAPI-1 and GM6001 at equimolar ratio.\nSEB or CMV activation of PBMCs for the generation of soluble CD28—0.3×10^6 PBMCs were stimulated with 0.5 ng/mL SEB (Sigma, Cat. No. S4881) for 5-7 days at 37° C. with/without the indicated concentration of various protease inhibitors in 48 well plate. Alternatively, 0.1×10^6 PBMCs were stimulated with 0.5 ng/mL SEB in 96 well plate format assay. For CMV stimulation 0.5×10^6 PBMCs were stimulated with 0.5 μg/mL CMV peptivator (Milteny Biotec, Cat. No. 130-093-435) for 2-5 days at 37° C. with/without the indicated concentration of various protease inhibitors in a 96 well plate. For continuous shedding experiments PBMC were stimulated with SEB or CMV in 24 well plate for 24 hr, cells were taken and washed three times with RPMI without stimulant and plated again in a 96 well plate. Samples were taken at indicated times and put under freezing conditions until examination for soluble CD28."}, "human PBMCs [9]": {"tested_on": "human PBMCs", "test": "Viability of SEB stimulated PBMCs with ADAM inhibitors (MTT assay)", "assay_type": "cell-based", "settings": "SEB 1 ng/mL, inhibitor 0.01-1 μM, with vs without inhibitor"}},
  "data": [
    {"compound": "MK-3475: Anti-Human PD-1 pembrolizumab [reference compound]", "values": [
      {"measurement": "IFN gamma secretion", "setting": "[1]; CMV peptide 0.5 μg/mL", "result": "increased IFN gamma secretion"},
      {"measurement": "TGF beta secretion", "setting": "[1]; CMV peptide 0.5 μg/mL", "result": "decreased TGF beta secretion"},
      {"measurement": "proinflammatory cytokine secretion (IFN gamma and IL-2)", "setting": "human PBMCs [2]; PBMC culture, SEB or CMV, 3 days, MK3475 5 μg/mL", "result": "increased proinflammatory cytokine secretion"}
    ]},
    {"compound": "IL-6: interleukin-6 administered as a positive control", "values": [
      {"measurement": "cell proliferation (MTT, % confluency)", "setting": "SCC-25 cells; SCC-25 cells grown alone", "result": "increased"}
    ]},
    {"compound": "sCD28: recombinant human CD28 lacking the transmembrane and cytoplasmic domains", "values": [
      {"measurement": "effect on CD80-Fc activation (IFN gamma secretion)", "setting": "[3]", "result": "counteracted the secondary activation effect of the CD80-Fc"},
      {"measurement": "lymphocyte cluster formation", "setting": "human PBMCs [4]", "result": "diminish the amount and size of cluster formation"},
      {"measurement": "cell proliferation (MTT, % confluency)", "setting": "SCC-25 cells; SCC-25 coculture with monocytes", "result": "by far the greatest increase"},
      {"measurement": "IFN gamma secretion", "setting": "human PBMCs [5]; CMV 0.5 μg/mL", "result": "dose-dependent inhibition of IFN gamma secretion"},
      {"measurement": "IL-6 secretion", "setting": "human PBMCs [5]; CMV 0.5 μg/mL", "result": "increase IL-6 cytokine secretion"},
      {"measurement": "interleukin-10 secretion", "setting": "human PBMCs [5]; CMV 0.5 μg/mL", "result": "elevation"},
      {"measurement": "CD80-Fc amount needed for immune response", "setting": "human PBMCs [5]; CMV peptide 3 days, constant sCD28, CD80-Fc titration", "result": "an increased amount of CD80-Fc was required"},
      {"measurement": "PD-L1 expression on monocytes", "setting": "human monocytes; IFNγ 1000 U/mL 48 hours", "result": "upregulated"},
      {"measurement": "PD-L2 expression on monocytes", "setting": "human monocytes; IFNγ 1000 U/mL 48 hours", "result": "upregulated"},
      {"measurement": "IDO expression in monocytes", "setting": "human monocytes; IFNγ 1000 U/mL 48 hr", "result": "strongly enhanced IDO expression"},
      {"measurement": "IFN gamma secretion", "setting": "[1]; CMV peptide 0.5 μg/mL", "result": "inhibit IFN gamma secretion"},
      {"measurement": "TGF beta secretion", "setting": "[1]; CMV peptide 0.5 μg/mL", "result": "increasing the secretion"},
      {"measurement": "IL-1B secretion", "setting": "[1]; CMV peptide 0.5 μg/mL, 5 days", "result": "increasing the secretion"},
      {"measurement": "IL-10 secretion", "setting": "[1]; CMV peptide 0.5 μg/mL, 5 days", "result": "increasing the secretion"},
      {"measurement": "effect of MK-3475 in the presence of sCD28", "setting": "[1]; MK3475 5 μg/mL", "result": "significantly reduced"},
      {"measurement": "effect on MK-3475 activity", "setting": "[6]", "result": "rendered the effect of MK-3475 nonexistent"},
      {"measurement": "concentration of human IFN gamma in the supernatant", "setting": "[6]; with or without MK-3475", "result": "greatly reduced"},
      {"measurement": "effect on immune activation by MK-3475", "setting": "human PBMCs [2]; sCD28 2 and 10 μg/mL with MK3475 5 μg/mL", "result": "abrogated completely this immune activation effect"},
      {"measurement": "effect on anti-PD-1 therapy (tumor growth)", "setting": "[7]", "result": "nearly completely abrogated in two of the mice"}
    ]},
    {"compound": "CC#CCOc1ccc(S(=O)(=O)N2CCSC(C)(C)[C@@H]2C(=O)NO)cc1", "note": "[TMI-1]", "values": [
      {"measurement": "sCD28 levels detected with antibodies of the invention", "setting": "human PBMCs [8]", "result": "Lower levels of sCD28"},
      {"measurement": "viability of the immune cells (MTT)", "setting": "human PBMCs [9]", "result": "no significant difference"}
    ]}
  ]
}
